Data as given in US10800816B2 (Baxalta GmbH, priority 2012, dated 2020).

test system: not listed separately; test: FIGURE 78O; settings: not given

Compound	24 h Human Plasma Stability | Mean Remaining [%]	24 h Mouse Plasma Stability | Mean Remaining [%]
CCN1C(=O)CC(SC[C@H](NC(=O)[C@H]2CCCN2C(=O)[C@H](CCCCN)NC(=O)[C@H](CO)NC(=O)[C@H](CCC(N)=O)NC(=O)[C@H](Cc2ccccc2)NC(C)=O)C(=O)N[C@H](C(=O)N[C@@H](Cc2c[nH]cn2)C(=O)N[C@H](C(=O)N[C@@H](CC(=O)O)C(=O)NCC(=O)N[C@@H](Cc2ccc(O)cc2)C(=O)N[C@@H](Cc2ccccc2)C(=O)N[C@@H](CCC(=O)O)C(=O)N[C@@H](CCCNC(=N)N)C(=O)N[C@@H](CC(C)C)C(=O)NC(C)(C)C(=O)N[C@@H](C)C(=O)N[C@@H](CCCCN)C(=O)N[C@@H](CC(C)C)C(N)=O)C(C)C)C(C)C)C1=O (stereo partly shown) [JBT00002397]	10.60%	
CCN1C(=O)CC(SC[C@H](NC(=O)[C@@H](NC(=O)[C@H](Cc2c[nH]cn2)NC(=O)[C@@H](NC(=O)[C@H](CC(N)=O)NC(=O)[C@H]2CCCN2C(=O)[C@H](CCCCN)NC(=O)[C@H](CO)NC(=O)[C@H](CCC(N)=O)NC(=O)[C@H](Cc2ccccc2)NC(C)=O)C(C)C)C(C)C)C(=O)NCC(=O)N[C@@H](Cc2ccc(O)cc2)C(=O)N[C@@H](Cc2ccccc2)C(=O)N[C@@H](CCC(=O)O)C(=O)N[C@@H](CCCNC(=N)N)C(=O)N[C@@H](CC(C)C)C(=O)NC(C)(C)C(=O)N[C@@H](C)C(=O)N[C@@H](CCCCN)C(=O)N[C@@H](CC(C)C)C(N)=O)C1=O (stereo partly shown) [JBT00002398, Ac-FQSKpNVHV-C(NEM)-GYFERL-Aib-AKL-NH2]	39.05%	21.60%
CCN1C(=O)CC(SC[C@H](NC(=O)[C@H](Cc2ccccc2)NC(=O)[C@H](Cc2ccc(O)cc2)NC(=O)CNC(=O)[C@H](CC(=O)O)NC(=O)[C@@H](NC(=O)[C@H](Cc2c[nH]cn2)NC(=O)[C@@H](NC(=O)[C@H](CC(N)=O)NC(=O)[C@H]2CCCN2C(=O)[C@H](CCCCN)NC(=O)[C@H](CO)NC(=O)[C@H](CCC(N)=O)NC(=O)[C@H](Cc2ccccc2)NC(C)=O)C(C)C)C(C)C)C(=O)N[C@@H](CCCNC(=N)N)C(=O)N[C@@H](CC(C)C)C(=O)NC(C)(C)C(=O)N[C@@H](C)C(=O)N[C@@H](CCCCN)C(=O)N[C@@H](CC(C)C)C(N)=O)C1=O (stereo partly shown) [JBT00002399]	10.70%	
CCSC1CC(=O)N(CCC(=O)NCCCOCCOCCOCCCNC(=O)CCC(=O)NCCCC[C@H](NC(=O)[C@H](CC(C)C)NC(=O)[C@H](CCCCN)NC(=O)[C@H](C)NC(=O)C(C)(C)NC(=O)[C@H](CC(C)C)NC(=O)[C@H](CCCNC(=N)N)NC(=O)[C@H](CCC(=O)O)NC(=O)[C@H](Cc2ccccc2)NC(=O)[C@H](Cc2ccc(O)cc2)NC(=O)CNC(=O)[C@H](CC(=O)O)NC(=O)[C@@H](NC(=O)[C@H](Cc2c[nH]cn2)NC(=O)[C@@H](NC(=O)[C@H](CC(N)=O)NC(=O)[C@H]2CCCN2C(=O)[C@H](CCCCN)NC(=O)[C@H](CO)NC(=O)[C@H](CCC(N)=O)NC(=O)[C@H](Cc2ccccc2)NC(C)=O)C(C)C)C(C)C)C(N)=O)C1=O (stereo partly shown) [JBT00002400]	60.00%	
Ac-FQSKp-C(ME-400MA)-VHVDGYFERL-Aib-AKL-NH2 [JBT00002402]	75.30%	99.70%
Ac-FQSKpNVHV-C(ME-400MA)-GYFERL-Aib-AKL-NH2 [JBT00002403]	96.70%	92.50%

test system: TFPI; test: IC50 ELISA | Mean IC50 [nM]; settings: not given
Source text: Table printed on a drawing sheet, FIGURE 78Z
Head of the field: IC50 ELISA | Mean IC50 [nM]
First copying reader's note: Continued table: the first body row (45.67) belongs to a compound on the preceding sheet, the last row probably continues on the next sheet, and cells with several values list single replicates.

Compound	IC50
(Hex-FQSKp-Cys(Acm)-VH-Tle-DaYFERL-Aib-AKLC- NH2)2-M2TriO [JBT00002533]	3.1 nM
Hex-FQSKp-Cys(Acm)-VH-Tle-DaYFERL-Aib-AK-OH [JBT00002543]	71.1 nM
Hex-FQSKp-Cys(Acm)-VH-Tle-DaYFERL-Aib-AKL-Ttds- K(Ttds-Myr)--NH2 [JBT00002539]	10.1 nM
Hex-FQSKp-Cys(Acm)-VH-Tle-DaYFERL-Aib-AKLC(ME- 400MA)-NH2 [JBT00002534]	15.3 nM
Hex-FQSKp-Cys(Acm)-VH-Tle-DaYFERL-Aib-AKLK(Ttds- Ac)--NH2 [JBT00002540]	3.99 nM
Hex-FQSKp-Cys(Acm)-VH-Tle-DaYFERL-Aib-AKLK(Ttds- gGlu-Myr)--NH2 [JBT00002541]	24.3 nM

test system: not listed separately; test: Pharmacokinetics in C57Bl6 mice; format: in vivo, mouse; settings: 1 mg/kg peptide content, intravenous, 1 mg/kg

Compound	HL_λ_z [h] (intravenous)
Ac-FQSKpNVHVDGYFERL-Aib-AKLC(PEG)-NH2 [JBT2325] (FQSKPNVHVDGYFERLXAKLC; acetyl, D-Pro, Aib, Cys-PEG 5.3 kD, amide; MOD_RES (1)..(1): N-terminal acetylation; MOD_RES (5)..(5): D-Pro; MOD_RES (17)..(17): Xaa is 2-amino-isobutyric acid; MOD_RES (21)..(21): Cys-PEG; MOD_RES (21)..(21): C-terminal amidation) [PEG 5.3 kD, linear maleimide PEG]	0.16 h
Ac-FQSKpNVHVDGYFERL-Aib-AKLC(PEG)-NH2 [JBT2326] (FQSKPNVHVDGYFERLXAKLC; acetyl, D-Pro, Aib, Cys-PEG 12.1 kD, amide; MOD_RES (1)..(1): N-terminal acetylation; MOD_RES (5)..(5): D-Pro; MOD_RES (17)..(17): Xaa is 2-amino-isobutyric acid; MOD_RES (21)..(21): Cys-PEG; MOD_RES (21)..(21): C-terminal amidation)	0.35 h
Ac-FQSKpNVHVDGYFERL-Aib-AKLC(PEG)-NH2 [JBT2327] (FQSKPNVHVDGYFERLXAKLC; acetyl, D-Pro, Aib, Cys-PEG 21.0 kD, amide; MOD_RES (1)..(1): N-terminal acetylation; MOD_RES (5)..(5): D-Pro; MOD_RES (17)..(17): Xaa is 2-amino-isobutyric acid; MOD_RES (21)..(21): Cys-PEG; MOD_RES (21)..(21): C-terminal amidation) [PEG 21.0 kD, linear maleimide PEG]	4.2 h
Ac-FQSKpNVHVDGYFERL-Aib-AKLC(PEG)-NH2 [JBT2328] (FQSKPNVHVDGYFERLXAKLC; acetyl, D-Pro, Aib, Cys-PEG 29.1 kD, amide; MOD_RES (1)..(1): N-terminal acetylation; MOD_RES (5)..(5): D-Pro; MOD_RES (17)..(17): Xaa is 2-amino-isobutyric acid; MOD_RES (21)..(21): Cys-PEG; MOD_RES (21)..(21): C-terminal amidation) [PEG 29.1 kD, linear maleimide PEG]	10.1 h

same assay, conditions: 1 mg/kg peptide content, s.c. AUC vs i.v. AUC, 1 mg/kg

Compound	Bioavailability [%] (s.c.)
Ac-FQSKpNVHVDGYFERL-Aib-AKLC(PEG)-NH2 [JBT2325] (FQSKPNVHVDGYFERLXAKLC; acetyl, D-Pro, Aib, Cys-PEG 5.3 kD, amide; MOD_RES (1)..(1): N-terminal acetylation; MOD_RES (5)..(5): D-Pro; MOD_RES (17)..(17): Xaa is 2-amino-isobutyric acid; MOD_RES (21)..(21): Cys-PEG; MOD_RES (21)..(21): C-terminal amidation) [PEG 5.3 kD, linear maleimide PEG]	58.2%
Ac-FQSKpNVHVDGYFERL-Aib-AKLC(PEG)-NH2 [JBT2326] (FQSKPNVHVDGYFERLXAKLC; acetyl, D-Pro, Aib, Cys-PEG 12.1 kD, amide; MOD_RES (1)..(1): N-terminal acetylation; MOD_RES (5)..(5): D-Pro; MOD_RES (17)..(17): Xaa is 2-amino-isobutyric acid; MOD_RES (21)..(21): Cys-PEG; MOD_RES (21)..(21): C-terminal amidation)	76.0%
Ac-FQSKpNVHVDGYFERL-Aib-AKLC(PEG)-NH2 [JBT2327] (FQSKPNVHVDGYFERLXAKLC; acetyl, D-Pro, Aib, Cys-PEG 21.0 kD, amide; MOD_RES (1)..(1): N-terminal acetylation; MOD_RES (5)..(5): D-Pro; MOD_RES (17)..(17): Xaa is 2-amino-isobutyric acid; MOD_RES (21)..(21): Cys-PEG; MOD_RES (21)..(21): C-terminal amidation) [PEG 21.0 kD, linear maleimide PEG]	89.7%
Ac-FQSKpNVHVDGYFERL-Aib-AKLC(PEG)-NH2 [JBT2328] (FQSKPNVHVDGYFERLXAKLC; acetyl, D-Pro, Aib, Cys-PEG 29.1 kD, amide; MOD_RES (1)..(1): N-terminal acetylation; MOD_RES (5)..(5): D-Pro; MOD_RES (17)..(17): Xaa is 2-amino-isobutyric acid; MOD_RES (21)..(21): Cys-PEG; MOD_RES (21)..(21): C-terminal amidation) [PEG 29.1 kD, linear maleimide PEG]	52.0%

test system: not listed separately; test: FIGURE 78P; settings: not given

Compound	24 h Human Plasma Stability | Mean Remaining [%]	24 h Mouse Plasma Stability | Mean Remaining [%]
CC(C)C[C@@H]1NC(=O)[C@H](CCCCN)NC(=O)[C@H](C)NC(=O)C(C)(C)NC(=O)[C@H](CC(C)C)NC(=O)[C@H](CCCNC(=N)N)NC(=O)[C@H](CCC(=O)O)NC(=O)[C@H](Cc2ccccc2)NC(=O)[C@H](Cc2ccc(O)cc2)NC(=O)CNC(=O)[C@H](CC(=O)O)NC(=O)[C@H](C(C)C)NC(=O)[C@H](Cc2c[nH]cn2)NC(=O)[C@H](C(C)C)NC(=O)[C@H](CC(N)=O)NC(=O)[C@H]2CCCN2C(=O)[C@H](CCCCN)NC(=O)[C@H](CO)NC(=O)[C@H](CCC(N)=O)NC(=O)[C@H](Cc2ccccc2)NC(=O)CCOCCOCCOCCOCCOCCNC1=O [JBT00002405]	55.90%	
CC(C)C[C@@H]1NC(=O)[C@H](CCCCN)NC(=O)[C@H](C)NC(=O)C(C)(C)NC(=O)[C@H](CC(C)C)NC(=O)[C@H](CCCNC(=N)N)NC(=O)[C@H](CCC(=O)O)NC(=O)[C@H](Cc2ccccc2)NC(=O)[C@H](Cc2ccc(O)cc2)NC(=O)CNC(=O)[C@H](CC(=O)O)NC(=O)[C@H](C(C)C)NC(=O)[C@H](Cc2c[nH]cn2)NC(=O)[C@H](C(C)C)NC(=O)[C@H](CC(N)=O)NC(=O)[C@H]2CCCN2C(=O)[C@H](CCCCN)NC(=O)[C@H](CO)NC(=O)[C@H](CCC(N)=O)NC(=O)[C@H](Cc2ccccc2)NC(=O)CCOCCOCCOCCOCCNC1=O [JBT00002406]	62.80%	38.10%
CC(C)C[C@@H]1NC(=O)[C@H](CCCCN)NC(=O)[C@H](C)NC(=O)C(C)(C)NC(=O)[C@H](CC(C)C)NC(=O)[C@H](CCCNC(=N)N)NC(=O)[C@H](CCC(=O)O)NC(=O)[C@H](Cc2ccccc2)NC(=O)[C@H](Cc2ccc(O)cc2)NC(=O)CNC(=O)[C@H](CC(=O)O)NC(=O)[C@H](C(C)C)NC(=O)[C@H](Cc2c[nH]cn2)NC(=O)[C@H](C(C)C)NC(=O)[C@H](CC(N)=O)NC(=O)[C@H]2CCCN2C(=O)[C@H](CCCCN)NC(=O)[C@H](CO)NC(=O)[C@H](CCC(N)=O)NC(=O)[C@H](Cc2ccccc2)NC(=O)CCOCCOCCOCCNC1=O [JBT00002407]	45.20%	
CC(C)C[C@@H]1NC(=O)[C@H](CCCCN)NC(=O)[C@H](C)NC(=O)C(C)(C)NC(=O)[C@H](CC(C)C)NC(=O)[C@H](CCCNC(=N)N)NC(=O)[C@H](CCC(=O)O)NC(=O)[C@H](Cc2ccccc2)NC(=O)[C@H](Cc2ccc(O)cc2)NC(=O)CNC(=O)[C@H](CC(=O)O)NC(=O)[C@H](C(C)C)NC(=O)[C@H](Cc2c[nH]cn2)NC(=O)[C@H](C(C)C)NC(=O)[C@H](CC(N)=O)NC(=O)[C@H]2CCCN2C(=O)[C@H](CCCCN)NC(=O)[C@H](CO)NC(=O)[C@H](CCC(N)=O)NC(=O)[C@H](Cc2ccccc2)NC(=O)COCCOCCNC1=O [JBT00002408]	61.60%	39.40%
Ac-FQSKpNVHVDGYF-C(ME-400MA)-RL-Aib-AKL-NH2 [JBT00002404]		93.20%
Ac-FQSKpNVHVDGYFERL-Aib-AKLK(Ttds-Maleimid-HSA)- NH2 [JBT00002410]		79.15%
